For 22 molecules, DC50 results are on record in patent US12606552B2, “Bifunctional compound, preparation method therefor, and use thereof” (SUZHOU KINTOR PHARMACEUTICALS, INC., priority 2020, dated 2026).

Where only a bound is given, the exact number is not on record here.

In the assay the target is T1, AR (Homo sapiens, UniProt P10275, T878A).
T1 sequence (P10275 1-920 T878A): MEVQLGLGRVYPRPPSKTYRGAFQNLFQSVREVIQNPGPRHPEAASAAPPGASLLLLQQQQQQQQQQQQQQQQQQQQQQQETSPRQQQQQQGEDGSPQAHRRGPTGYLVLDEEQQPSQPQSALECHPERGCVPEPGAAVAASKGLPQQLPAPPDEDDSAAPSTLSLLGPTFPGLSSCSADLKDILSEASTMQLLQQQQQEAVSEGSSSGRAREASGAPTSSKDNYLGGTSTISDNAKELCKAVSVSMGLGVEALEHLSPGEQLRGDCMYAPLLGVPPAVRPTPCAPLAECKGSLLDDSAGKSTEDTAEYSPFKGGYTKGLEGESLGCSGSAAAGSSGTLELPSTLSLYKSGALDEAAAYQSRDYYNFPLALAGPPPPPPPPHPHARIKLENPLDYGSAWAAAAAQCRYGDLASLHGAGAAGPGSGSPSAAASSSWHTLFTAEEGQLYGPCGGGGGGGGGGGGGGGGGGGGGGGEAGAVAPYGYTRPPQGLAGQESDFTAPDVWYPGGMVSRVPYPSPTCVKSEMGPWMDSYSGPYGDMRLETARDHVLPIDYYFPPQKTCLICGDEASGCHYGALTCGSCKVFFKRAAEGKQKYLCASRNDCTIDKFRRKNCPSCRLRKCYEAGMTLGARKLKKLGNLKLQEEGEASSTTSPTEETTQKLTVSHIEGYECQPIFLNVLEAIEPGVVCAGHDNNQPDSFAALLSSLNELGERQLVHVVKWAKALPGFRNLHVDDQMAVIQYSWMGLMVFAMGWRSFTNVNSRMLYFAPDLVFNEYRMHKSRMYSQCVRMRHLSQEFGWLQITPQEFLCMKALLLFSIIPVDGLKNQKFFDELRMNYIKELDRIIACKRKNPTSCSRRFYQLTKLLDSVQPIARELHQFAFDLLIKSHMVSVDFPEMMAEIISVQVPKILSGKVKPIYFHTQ
Briefly: Effects of compounds on AR expression in LNCaP cells (ELISA, DC50). The assay is classed as cell-based. Also on record: Measurement of the Effects of Drugs on the Expression of AR in Cells by ELISA Method; endogenous in cells; host or cells: LNCaP. To be noted: 24 hours of drug treatment, AR by ELISA. The protocol: Activity Assay Example 1: Effects of Compounds on AR Expression in LNCaP Cells
1. Cell Line and Cell Culture
Human prostate cancer cells LNCaP (Shanghai Chinese Academy of Sciences Cell Bank). LNCaP was cultured in 1640 medium containing 10% fetal bovine serum. The cells grow in clusters, with weak adhesion to the bottom of the culture flask, slow proliferation, with a multiplication time of 72 h. The cells are closely adhered to each other and need to be digested with 0.05% trypsin containing 0.025% EDTA. The cells were passaged every 3 days. The cells were cultured at 37° C. and 5% CO2 in a humidified incubator
2. Cell plating: The supernatant was discarded, and the Lncap cells in the logarithmic growth phase were taken, washed with PBS once, and added with appropriate 0.05% trypsin digestion solution to be fully digested into single cell suspension, and centrifuged, resuspended and counted to make the number of cells about 15,000 per well, then inoculated in a 96-well plate, placed at 37° C., 5% CO2 and cultured overnight for 24 h.
3. Preparation and Addition of Compound Solutions
About 2 mg of each compound was weighed and dissolved in DMSO to make the stock solution with a concentration of 10 mmol/L. Dilution process (final concentration dilution: 2, 0.667, 0.222, 0.074, 0.0245, 0.008, 0.003, 0.001, 0.0003, 0.0001 μmol/L): 10 centrifuge tubes with a volume of 1.5 mL were taken and numbered 1, 2, 3, 4, 5, 6, 7, 8, 9, and 10, 80 μL DMSO was added to tube No. 1, and 60 μL DMSO was added to tubes No. 2 to No. 10, 20 μL of the stock solution was pipetted to tube No. 1 and mixed well; 30 μL was pipetted from tube No. 1 into tube No. 2 and mixed well. 30 μL was pipetted from tube No. 2 into tube No. 3 and mixed well, and so forth, to obtain samples No. 4-10, and to obtain working solutions of compounds of different concentrations respectively. 2 μL was pipetted from the above-mentioned tubes No. 1-10 into each corresponding sterile deep-well plates, added with 198 μL of culture medium, and mixed well. 11 ul was added to each well of the 96-well cell plate cultured overnight to obtain the corresponding desired concentrations (2, 0.667, 0.222, 0.074, 0.0245, 0.008, 0.003, 0.001, 0.0003, 0.0001 μmol/L).
4. Measurement of the Effects of Drugs on the Expression of AR in Cells by ELISA Method
After 24 hours of drug treatment, the supernatant was removed, and 200 μL of PBS was added to wash cells, and then the supernatant was removed, and 100 μL of cell lysate was added to lyse cells on ice for 20 min, then the cell lysate was centrifuged at 4000 rpm for 20 min at 4° C. and the supernatant was taken for later use. The measurement steps of the supernatant were according to the ELISA kit instructions:
4.1 The slats required for the test were taken out from the sealed bag that has been equilibrated to room temperature. Please put the unused slats and desiccant back into the aluminum foil bag and compress the self-sealing strip, seal the bag, and store at 4° C.
4.2 Standards and sample diluents were added to blank wells, and different concentrations of standards (10 ul/well) and sample diluents (90 ul/well) were added to the remaining corresponding wells, and the reaction wells were sealed with sealing tape, and refrigerated at 4° C. overnight.
4.3 Primary antibody was diluted with dilution buffer to the corresponding concentration and added to each well in 100 ul/well. The reaction wells were sealed with sealing tape and incubated at 37° C. for 60 min.
4.4 Secondary antibody was diluted with dilution buffer to the corresponding concentration and added to each well in 100 ul/well. The reaction wells were sealed with sealing tape and incubated at 37° C. for 30 min.
4.5 The reaction wells were added with 100 ul/well of substrate (TMB) and incubated at room temperature for 30 min.
4.6 The reaction wells were added with 100 ul/well of stop solution, mixed well and then the OD450 value was measured with a microplate reader. […]
On the technique in general: In an ELISA, binding on a coated surface is turned into a signal by an enzyme label.

With `Cc1ncsc1-c1ccc(CNC(=O)[C@@H]2C[C@@H](O)CN2C(=O)[C@@H](NC(=O)COCCCCNC(=O)/C=C/c2ccc(N3C(=S)N(c4ccc(C#N)c(C(F)(F)F)c4F)C(=O)C3(C)C)cn2)C(C)(C)C)cc1` [Compound A170], the DC50 worked out at 946 nM.

Regarding `CC(C)(C)[C@H](NC(=O)COCCCCOc1ccc(-c2ncc(N3C(=S)N(c4ccc(C#N)c(C(F)(F)F)c4F)C(=O)C3(C)C)cc2F)c(C(F)(F)F)c1)C(=O)N1C[C@H](O)C[C@H]1c1nc(-c2ccccc2)c[nH]1` [Compound A202], the DC50 was found to be 661 nM. Next, `Cc1ncsc1-c1ccc(CNC(=O)[C@@H]2C[C@@H](O)CN2C(=O)[C@@H](NC(=O)COCCCCNc2ccc(-c3ccc(N4C(=S)N(c5ccc(C#N)c(C(F)(F)F)c5F)C(=O)C4(C)C)cn3)cc2)C(C)(C)C)cc1` [Compound A68]: greater than 2000 nM; `Cc1ncsc1-c1ccc([C@H](C)NC(=O)[C@@H]2C[C@@H](O)CN2C(=O)[C@@H](NC(=O)COCCCCOc2ccc(-c3ccc(N4C(=S)N(c5ccc(C#N)c(C(F)(F)F)c5F)C(=O)C4(C)C)cn3)cc2C(F)(F)F)C(C)(C)C)cc1` [Compound A113]: 193 nM. Next, `Cc1ncsc1-c1ccc(CNC(=O)[C@@H]2C[C@@H](O)CN2C(=O)[C@@H](NC(=O)COCCOCCOc2ccc(-c3ccc(N4C(=S)N(c5ccc(C#N)c(C(F)(F)F)c5F)C(=O)C4(C)C)cn3)cc2)C(C)(C)C)cc1` [Compound A76]: 40 nM; `Cc1ncsc1-c1ccc(CNC(=O)[C@@H]2C[C@@H](O)CN2C(=O)[C@@H](NC(=O)CCc2ccc(C(=O)Nc3ccc(-c4ccc(N5C(=S)N(c6ccc(C#N)c(C(F)(F)F)c6F)C(=O)C5(C)C)cn4)cc3)cc2)C(C)(C)C)cc1` [Compound A252]: 95.9 nM; `Cc1ncsc1-c1ccc(CNC(=O)[C@@H]2C[C@@H](O)CN2C(=O)[C@@H](NC(=O)Cc2ccc(C(=O)Nc3ccc(-c4ncc(N5C(=S)N(c6ccc(C#N)c(C(F)(F)F)c6F)C(=O)C5(C)C)cc4F)c(C(F)(F)F)c3)cc2)C(C)(C)C)cc1` [Compound A256]: 119 nM. Next, `Cc1ncsc1-c1ccc(CNC(=O)[C@@H]2C[C@@H](O)CN2C(=O)[C@@H](NC(=O)CCCn2cc(COc3ccc(-c4ncc(N5C(=S)N(c6ccc(C#N)c(C(F)(F)F)c6F)C(=O)C5(C)C)cc4F)cc3F)nn2)C(C)(C)C)cc1` [Compound A96]: 54.9 nM. Take `CC1(C)C(=O)N(c2ccc(C#N)c(C(F)(F)F)c2F)C(=S)N1c1cnc(-c2ccc(OCCNC(=O)COc3ccc4c(c3)C(=O)N(C3CCC(=O)NC3=O)C4=O)c(F)c2)c(F)c1` (stereo not shown) [Compound A40]: the DC50 stood at 29.8 nM. Next, `Cc1ncsc1-c1ccc(CNC(=O)[C@@H]2C[C@@H](O)CN2C(=O)[C@@H](NC(=O)COCC(F)CCOc2ccc(-c3ncc(N4C(=S)N(c5ccc(C#N)c(C(F)(F)F)c5F)C(=O)C4(C)C)cc3F)cc2F)C(C)(C)C)cc1` (stereo partly shown) [Compound A159]: 168 nM; `COc1c(C#N)ccc(N2C(=O)C(C)(C)N(c3cnc(-c4ccc(OCCNC(=O)COc5ccc6c(c5)C(=O)N(C5CCC(=O)NC5=O)C6=O)c(F)c4)c(F)c3)C2=S)c1F` (stereo not shown) [Compound A197]: 435 nM. As for `Cn1cncc1-c1c[nH]c([C@@H]2C[C@@H](O)CN2C(=O)[C@@H](NC(=O)COCCCCOc2ccc(-c3ccc(N4C(=S)N(c5ccc(C#N)c(C(F)(F)F)c5F)C(=O)C4(C)C)cn3)cc2)C(C)(C)C)n1` [Compound A232], the figure is 41.3 nM; as for `Cc1ncsc1-c1ccc(CNC(=O)[C@@H]2C[C@@H](O)CN2C(=O)[C@@H](NC(=O)COCCCOCCCCOc2ccc(N3C(=S)N(c4ccc(C#N)c(C(F)(F)F)c4F)C(=O)C3(C)C)cn2)C(C)(C)C)cc1` [Compound A248], 48.8 nM.

Take `Cc1ncsc1-c1cn(C)c([C@@H]2C[C@@H](O)CN2C(=O)[C@@H](NC(=O)COCCCCOc2ccc(-c3ncc(N4C(=S)N(c5ccc(C#N)c(C(F)(F)F)c5F)C(=O)C4(C)C)cc3F)c(C(F)(F)F)c2)C(C)(C)C)n1` [Compound A221]: the DC50 stood at 144 nM. As for `Cc1ncsc1-c1ccc(CNC(=O)[C@@H]2C[C@@H](O)CN2C(=O)[C@@H](NC(=O)COCCOCCCOc2ncc(N3C(=S)N(c4ccc(C#N)c(C(F)(F)F)c4F)C(=O)C3(C)C)cc2F)C(C)(C)C)cc1` [Compound A267], the figure is 119 nM. Regarding `CC1(C)C(=O)N(c2ccc(C#N)c(C(F)(F)F)c2F)C(=S)N1c1ccc(C2CC2C(=O)NCCNC(=O)COc2cccc3c2C(=O)N(C2CCC(=O)NC2=O)C3=O)nc1` (stereo not shown) [Compound A24], the DC50 was greater than 2000 nM.

On to `Cc1ncsc1-c1ccc(CNC(=O)[C@@H]2C[C@@H](O)CN2C(=O)[C@@H](NC(=O)COc2ncc(N3C(=S)N(c4ccc(C#N)c(C(F)(F)F)c4F)C(=O)C3(C)C)cc2F)C(C)(C)C)cc1` [Compound A264], for which the DC50 was determined as 870 nM. Next, `CC(C)(C)[C@H](NC(=O)COCCCCOc1ccc(-c2ncc(N3C(=S)N(c4ccc(C#N)c(C(F)(F)F)c4F)C(=O)C3(C)C)cc2F)c(C(F)(F)F)c1)C(=O)N1C[C@H](O)C[C@H]1c1nc(-c2cncs2)c[nH]1` [Compound A204]: 36.4 nM. Next, `Cc1ncsc1-c1ccc(CNC(=O)[C@@H]2C[C@@H](O)CN2C(=O)[C@@H](NC(=O)CCCN2CC(Oc3ccc(-c4ccc(N5C(=S)N(c6ccc(C#N)c(C(F)(F)F)c6F)C(=O)C5(C)C)cn4)cc3)C2)C(C)(C)C)cc1` [Compound A64]: 233 nM; `CC1(C)C(=O)N(c2ccc(C#N)c(C(F)(F)F)c2F)C(=S)N1c1ccc(CCCC(=O)NCCNC(=O)COc2cccc3c2C(=O)N(C2CCC(=O)NC2=O)C3=O)nc1` (stereo not shown) [Compound A6]: greater than 2000 nM. As for `Cc1ncsc1-c1c[nH]c([C@@H]2C[C@@H](O)CN2C(=O)[C@@H](NC(=O)COCCCCOc2ccc(-c3ncc(N4C(=S)N(c5ccc(C#N)c(C(F)(F)F)c5F)C(=O)C4(C)C)cc3F)c(C(F)(F)F)c2)C(C)(C)C)n1` [Compound A165], the figure is 43.8 nM; as for `Cc1ncsc1-c1ccc(CNC(=O)[C@@H]2C[C@@H](O)CN2C(=O)[C@@H](NC(=O)CCCCCNC(=O)c2ccc(-c3ccc(N4C(=S)N(c5ccc(C#N)c(C(F)(F)F)c5F)C(=O)C4(C)C)cn3)cc2)C(C)(C)C)cc1` [Compound A53], 149 nM.
